Assay results taken from US4273869A, “Cystic fibrosis detection method” (The Regents of the University of Minnesota, priority 1979, dated 1981).

System: fibroblasts from CF subjects, heterozygote carriers and controls
Assay: O2 consumption of skin fibroblast suspensions measured polarographically, with electron transport inhibitors
Format: cell-based, human
Description: Skin fibroblast strains from the upper arm were obtained from subjects with CF and age- and sex-matched controls and from obligate CF heterozygote parents and their age- and sex-matched controls. Cells were stored in liquid nitrogen at early passages and thawed for use as needed. In all but a few experiments, strains were passage matched. For O2 consumption studies and mitochondrial preparations, monolayers were grown in 285×115 mm roller bottles (Bellco Glass, N.J.). For NADH dehydrogenase studies, monolayers were grown in 75 cm^2 flasks (Falcon, Oxnard, Ca.). Monolayers were cultured in Eagle's minimal essential medium with Earle's salts plus L-glutamine (K. C. Biologicals, Inc., Lenexa, Kans.), supplemented with 10 percent fetal calf serum, 100 units per ml of penicillin, and 100 μg/ml of streptomycin (Gibco, Grand Island, N.Y.). The cultures were maintained at 37° in 95 percent air-5 percent CO2 atmosphere. Cells were harvested with trypsin-EDTA [(1:250 tryspin+0.2 g EDTA/1 (Gibco, Grand Island, N.Y.)].
Confluent monolayers of fibroblasts as prepared in Example 1 were harvested by trypsin-EDTA digestion. Cells were pelleted by centrifugation at 600×g for 5 min, washed with 10 ml of cold Hank's Balanced Salt Solution (HBSS) containing 0.1 mg/ml bovine serum albumin and 10 mg/ml dextrose, pH 7.4. 100 μl aliquots of the washed cell suspension were taken for cell counting using a ZBI Coulter Counter. The washed cells were again pelleted by centrifugation and resuspended in 1 ml cold HBSS. O2 consumption was measured polarographically on a cell suspension of 1×10^7 cells in a final volume of 3 ml by an O2 electrode system (Clark model 53, Yellow Springs Instruments, Ohio). […] In these experiments the baseline O2 uptake rate was determined for each cell line. Prior to removing the cells from the electrode chamber, 100 μl of 100 μ M rotenone were added and O2 consumption recorded. […]
The change in O2 consumption rate caused by rotenone was recorded as percent of initial O2 consumption rate. Each point represents percent inhibition measured on one cell strain.

Compound: C=C(C)[C@H]1Cc2c(ccc3c2O[C@@H]2COc4cc(OC)c(OC)cc4[C@@H]2C3=O)O1 [rotenone]
- Inhibition of O2 consumption (change in O2 consumption rate as percent of initial rate) (100 μl of 100 μM rotenone added to 1×10^7 cells in 3 ml, all cell strains tested): inhibited O2 consumption in all cell strains tested
- Relative inhibitory effect on O2 consumption among genotypes (100 μl of 100 μM rotenone, CF, HZ (carrier) and control fibroblast strains, FIG. 5): CF>HZ>controls
- O2 consumption after treatment with the inhibitor, compared between genotypes (cells treated with rotenone, CF subjects, carriers, controls): cells from cystic fibrosis subjects and carriers consume equal amounts of oxygen, as do controls
